{
  "source": "patent US11214594B2",
  "about": "“Antimicrobial peptide having synergistic antibacterial effect with antibiotics on multidrug resistant bacteria, and use thereof” (priority 2016, dated 2022)",
  "key": {"MDRAB 12035 [1]": {"tested_on": "MDRAB 12035", "test": "MIC of antibiotic during combined treatment with antimicrobial peptide", "assay_type": "cell-based, Acinetobacter baumannii", "in_short": "(§1)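 Broth microdilution in MH medium; strains were diluted to 2×10^6 CFU per ml before plating. Peptide was serially diluted stepwise at 2:1 starting from its MIC, and MH-diluted antibiotic was then added to determine MIC. The reversed arrangement was also tested.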"}, "E. coli": {"tested_on": "E. coli", "assay_type": "cell-based, Escherichia coli", "details": "E. coli", "in_short": "as §1"}, "MDREC 1229": {"tested_on": "MDREC 1229", "assay_type": "cell-based, Escherichia coli", "in_short": "as §1"}, "A. baumannii": {"tested_on": "A. baumannii", "test": "MIC of antimicrobial peptide during combined treatment with antibiotic", "assay_type": "cell-based, Acinetobacter baumannii", "in_short": "as §1"}, "MDRAB 12035 [2]": {"tested_on": "MDRAB 12035", "test": "MIC of antimicrobial peptide during combined treatment with antibiotic", "assay_type": "cell-based, Acinetobacter baumannii", "in_short": "as §1"}, "[3]": {"details": "peptide treatment concentration 2 μg/ml"}, "[4]": {"details": "peptide treatment concentration 4 μg/ml"}, "[5]": {"details": "peptide treatment concentration 6 μg/ml"}, "[6]": {"details": "peptide treatment concentration 8 μg/ml"}, "[7]": {"details": "peptide treatment concentration 16 μg/ml"}, "[8]": {"details": "peptide treatment concentration 32 μg/ml"}, "[9]": {"details": "peptide treatment concentration 64 μg/ml"}, "[10]": {"details": "linezolid 64 μg/ml (Conc./MIC 1/8)"}, "[11]": {"details": "linezolid 512 μg/ml (Conc./MIC 1)"}, "[12]": {"details": "vancomycin 512 μg/ml (Conc./MIC 1/2)"}, "[13]": {"details": "vancomycin 1024 μg/ml (Conc./MIC 1)"}, "[14]": {"details": "erythromycin 4 μg/ml (Conc./MIC 1/8)"}, "[15]": {"details": "erythromycin 8 μg/ml (Conc./MIC 1/4)"}, "[16]": {"details": "erythromycin 16 μg/ml (Conc./MIC 1/2)"}, "[17]": {"details": "erythromycin 32 μg/ml (Conc./MIC 1)"}},
  "note": "Like-named read-outs stand apart in the source and are kept apart here. Where a SMILES comes first, the peptide text is derived from it. [ ]: non-standard residue; d: D form.",
  "data": [
    {"molecule": "CC[C@H](C)[C@H](NC(=O)[C@H](CCCCN)NC(=O)[C@H](Cc1c[nH]c2ccccc12)NC(=O)[C@@H](N)CCCNC(=N)N)C(=O)N[C@@H](Cc1ccccc1)C(=O)N[C@@H](CCCCN)C(=O)N[C@@H](CCCCN)C(=O)N[C@H](C(=O)N[C@H](CCCCN)C(=O)N[C@@H](CCCCN)C(=O)N[C@@H](CC(C)C)C(=O)N[C@@H](CC(C)C)C(=O)N[C@@H](Cc1c[nH]cn1)C(=O)N[C@@H](CCCCN)C(=O)N[C@@H](Cc1ccccc1)C(=O)N[C@@H](CCCCN)C(=O)N[C@@H](CCCCN)C(=O)N[C@@H](Cc1ccccc1)C(N)=O)[C@@H](C)CC", "note": "[PapMA-17, RWK IFK KIk KLL HKF KKF-NH2] (H-RWKIFKKI[dK]KLLHKFKKF-NH2; N-terminus assumed)", "values": [
      {"measurement": "Vancomycin MIC during combined treatment with peptide", "setting": "MDRAB 12035 [1]; peptide treatment concentration 1 μg/ml", "value": ">128", "unit": "µg/mL"},
      {"measurement": "Erythromycin MIC during combined treatment with peptide", "setting": "MDRAB 12035 [1]; [3]", "value": 16, "unit": "µg/mL"},
      {"measurement": "Linezolid MIC during combined treatment with peptide", "setting": "MDRAB 12035 [1]; [3]", "value": 128, "unit": "µg/mL"},
      {"measurement": "Vancomycin MIC during combined treatment with peptide", "setting": "MDRAB 12035 [1]; [3]", "value": ">128", "unit": "µg/mL"},
      {"measurement": "Erythromycin MIC during combined treatment with peptide", "setting": "MDRAB 12035 [1]; [4]", "value": 8, "unit": "µg/mL"},
      {"measurement": "Linezolid MIC during combined treatment with peptide", "setting": "MDRAB 12035 [1]; [4]", "value": 32, "unit": "µg/mL"},
      {"measurement": "Vancomycin MIC during combined treatment with peptide", "setting": "MDRAB 12035 [1]; [4]", "value": 128, "unit": "µg/mL"},
      {"measurement": "Erythromycin MIC during combined treatment with peptide", "setting": "MDRAB 12035 [1]; [5]", "value": 4, "unit": "µg/mL"},
      {"measurement": "Linezolid MIC during combined treatment with peptide", "setting": "MDRAB 12035 [1]; [5]", "value": 32, "unit": "µg/mL"},
      {"measurement": "Vancomycin MIC during combined treatment with peptide", "setting": "MDRAB 12035 [1]; [5]", "value": 32, "unit": "µg/mL"},
      {"measurement": "Erythromycin MIC during combined treatment with peptide", "setting": "MDRAB 12035 [1]; [6]", "value": 0.5, "unit": "µg/mL"},
      {"measurement": "Linezolid MIC during combined treatment with peptide", "setting": "MDRAB 12035 [1]; [6]", "value": 16, "unit": "µg/mL"},
      {"measurement": "Vancomycin MIC during combined treatment with peptide", "setting": "MDRAB 12035 [1]; [6]", "value": 16, "unit": "µg/mL"},
      {"measurement": "Erythromycin MIC during combined treatment with peptide", "setting": "MDRAB 12035 [1]; [7]", "value": 0.25, "unit": "µg/mL"},
      {"measurement": "Linezolid MIC during combined treatment with peptide", "setting": "MDRAB 12035 [1]; [7]", "value": 4, "unit": "µg/mL"},
      {"measurement": "Vancomycin MIC during combined treatment with peptide", "setting": "MDRAB 12035 [1]; [7]", "value": 8, "unit": "µg/mL"},
      {"measurement": "Erythromycin MIC during combined treatment with peptide", "setting": "MDRAB 12035 [1]; [8]", "value": 0, "unit": "µg/mL"},
      {"measurement": "Linezolid MIC during combined treatment with peptide", "setting": "MDRAB 12035 [1]; [8]", "value": 0, "unit": "µg/mL"},
      {"measurement": "Vancomycin MIC during combined treatment with peptide", "setting": "MDRAB 12035 [1]; [8]", "value": 0, "unit": "µg/mL"},
      {"measurement": "Erythromycin MIC during combined treatment with peptide", "setting": "MDRAB 12035 [1]; [9]", "value": 0, "unit": "µg/mL"},
      {"measurement": "Linezolid MIC during combined treatment with peptide", "setting": "MDRAB 12035 [1]; [9]", "value": 0, "unit": "µg/mL"},
      {"measurement": "Vancomycin MIC during combined treatment with peptide", "setting": "MDRAB 12035 [1]; [9]", "value": 0, "unit": "µg/mL"},
      {"measurement": "Peptide MIC", "setting": "E. coli; with Erythromycin […] (Conc./MIC 1)", "value": 0, "unit": "µg/mL"},
      {"measurement": "Peptide MIC", "setting": "E. coli; with Linezolid […] (Conc./MIC 1)", "value": 0, "unit": "µg/mL"},
      {"measurement": "Peptide MIC", "setting": "E. coli; with Vancomycin 1024 μg/ml (Conc./MIC 1)", "value": 0, "unit": "µg/mL"},
      {"measurement": "Peptide MIC during treatment with antibiotic", "setting": "MDREC 1229; erythromycin 32 μg/ml (Conc./MIC 1/8)", "value": 2, "unit": "µg/mL"},
      {"measurement": "Peptide MIC during treatment with antibiotic", "setting": "MDREC 1229; erythromycin 64 μg/ml (Conc./MIC 1/4)", "value": 2, "unit": "µg/mL"},
      {"measurement": "Peptide MIC during treatment with antibiotic", "setting": "MDREC 1229; erythromycin […] (Conc./MIC 1)", "value": 0, "unit": "µg/mL"},
      {"measurement": "Peptide MIC during treatment with antibiotic", "setting": "MDREC 1229; erythromycin […] (Conc./MIC 1/2)", "value": 2, "unit": "µg/mL"},
      {"measurement": "Peptide MIC during treatment with antibiotic", "setting": "MDREC 1229; [10]", "value": 4, "unit": "µg/mL"},
      {"measurement": "Peptide MIC during treatment with antibiotic", "setting": "MDREC 1229; [11]", "value": 0, "unit": "µg/mL"},
      {"measurement": "Peptide MIC during treatment with antibiotic", "setting": "MDREC 1229; linezolid […] (Conc./MIC 1/2)", "value": 1, "unit": "µg/mL"},
      {"measurement": "Peptide MIC during treatment with antibiotic", "setting": "MDREC 1229; linezolid […] (Conc./MIC 1/4)", "value": 4, "unit": "µg/mL"},
      {"measurement": "Peptide MIC during treatment with antibiotic", "setting": "MDREC 1229; [12]", "value": 2, "unit": "µg/mL"},
      {"measurement": "Peptide MIC during treatment with antibiotic", "setting": "MDREC 1229; [13]", "value": 1, "unit": "µg/mL"},
      {"measurement": "Peptide MIC during treatment with antibiotic", "setting": "MDREC 1229; vancomycin […] (Conc./MIC 1/4)", "value": 4, "unit": "µg/mL"},
      {"measurement": "Peptide MIC during treatment with antibiotic", "setting": "MDREC 1229; vancomycin […] (Conc./MIC 1/8)", "value": 8, "unit": "µg/mL"},
      {"measurement": "Peptide MIC during treatment with antibiotic", "setting": "A. baumannii; [14]", "value": 4, "unit": "µg/mL"},
      {"measurement": "Peptide MIC during treatment with antibiotic", "setting": "A. baumannii; [15]", "value": 4, "unit": "µg/mL"},
      {"measurement": "Peptide MIC during treatment with antibiotic", "setting": "A. baumannii; [16]", "value": 2, "unit": "µg/mL"},
      {"measurement": "Peptide MIC during treatment with antibiotic", "setting": "A. baumannii; [17]", "value": 0, "unit": "µg/mL"},
      {"measurement": "Peptide MIC during treatment with antibiotic", "setting": "A. baumannii; linezolid 32 μg/ml (Conc./MIC 1/8)", "value": 4, "unit": "µg/mL"},
      {"measurement": "Peptide MIC during treatment with antibiotic", "setting": "A. baumannii; linezolid 64 μg/ml (Conc./MIC 1/4)", "value": 2, "unit": "µg/mL"},
      {"measurement": "Peptide MIC during treatment with antibiotic", "setting": "A. baumannii; linezolid […] (Conc./MIC 1)", "value": 0, "unit": "µg/mL"},
      {"measurement": "Peptide MIC during treatment with antibiotic", "setting": "A. baumannii; linezolid […] (Conc./MIC 1/2)", "value": 2, "unit": "µg/mL"},
      {"measurement": "Peptide MIC during treatment with antibiotic", "setting": "A. baumannii; [12]", "value": 0.25, "unit": "µg/mL"},
      {"measurement": "Peptide MIC during treatment with antibiotic", "setting": "A. baumannii; [13]", "value": 0, "unit": "µg/mL"},
      {"measurement": "Peptide MIC during treatment with antibiotic", "setting": "A. baumannii; vancomycin […] (Conc./MIC 1/4)", "value": 0.5, "unit": "µg/mL"},
      {"measurement": "Peptide MIC during treatment with antibiotic", "setting": "A. baumannii; vancomycin […] (Conc./MIC 1/8)", "value": 4, "unit": "µg/mL"},
      {"measurement": "Peptide MIC during treatment with erythromycin", "setting": "MDRAB 12035 [2]; [14]", "value": 4, "unit": "µg/mL"},
      {"measurement": "Peptide MIC during treatment with erythromycin", "setting": "MDRAB 12035 [2]; [15]", "value": 4, "unit": "µg/mL"},
      {"measurement": "Peptide MIC during treatment with erythromycin", "setting": "MDRAB 12035 [2]; [16]", "value": 2, "unit": "µg/mL"},
      {"measurement": "Peptide MIC during treatment with erythromycin", "setting": "MDRAB 12035 [2]; [17]", "value": 0, "unit": "µg/mL"},
      {"measurement": "Peptide MIC during treatment with linezolid", "setting": "MDRAB 12035 [2]; [10]", "value": 4, "unit": "µg/mL"},
      {"measurement": "Peptide MIC during treatment with linezolid", "setting": "MDRAB 12035 [2]; [11]", "value": 0, "unit": "µg/mL"},
      {"measurement": "Peptide MIC during treatment with linezolid", "setting": "MDRAB 12035 [2]; linezolid […] (Conc./MIC 1/2)", "value": 1, "unit": "µg/mL"},
      {"measurement": "Peptide MIC during treatment with linezolid", "setting": "MDRAB 12035 [2]; linezolid […] (Conc./MIC 1/4)", "value": 2, "unit": "µg/mL"},
      {"measurement": "Peptide MIC during treatment with vancomycin", "setting": "MDRAB 12035 [2]; [12]", "value": 2, "unit": "µg/mL"},
      {"measurement": "Peptide MIC during treatment with vancomycin", "setting": "MDRAB 12035 [2]; [13]", "value": 1, "unit": "µg/mL"},
      {"measurement": "Peptide MIC during treatment with vancomycin", "setting": "MDRAB 12035 [2]; vancomycin […] (Conc./MIC 1/4)", "value": 4, "unit": "µg/mL"},
      {"measurement": "Peptide MIC during treatment with vancomycin", "setting": "MDRAB 12035 [2]; vancomycin […] (Conc./MIC 1/8)", "value": 4, "unit": "µg/mL"}
    ]}
  ]
}
